Results on six molecules are retold here after patent US20140371189A1, “TESTOSTERONE REPLACEMENT THERAPY IN ANIMALS, INCLUDING DOGS” (David Bieber Consulting, LLC, priority 2013, published 2014).

The conditions of data set [1]: cited from earlier work; for effectiveness when taken orally: oral.
Data set [2] concerns dogs compromised by osteoarthritis, intervertebral disc disease, hip dysplasia, weakness due to old age, muscle atrophy and joint pain. Nature of the data set: Example 1: testosterone replacement therapy study, medical record review. The data set is classed as in vivo, dog. The source says: In order to treat dogs, horses, or other animals in need of testosterone replacement therapy, the following protocol should be followed: • (1) Obtain information about potential patient via a clinical intake process and questionnaire such as the example shown in the drawing figure; • (2) Conduct a general physical examination on potential patient; • (3) Conduct laboratory tests on potential patient's blood and/or urine, including measuring initial testosterone levels in the patient's blood. This can be total testosterone or free testosterone. […]
A study was undertaken to determine if dogs compromised by osteoarthritis (also known as degenerative joint disease), intervertebral disc disease, hip dysplasia, weakness due to old age, muscle atrophy and joint pain experienced improvements following testosterone replacement therapy. […] Data from the medical records were analyzed to determine the efficacy of the treatment protocol. Data recorded from medical records included breed, date of birth, age, sex, neutered vs. intact, baseline testosterone level, date of testosterone injections and improvement status (improved vs. no noticeable improvement). […]
Following informed assent by each dog owner, each dog underwent an initial clinical exam including a detailed health history, list of medications, a CBC, urinalysis and baseline testosterone level were conducted. […] Changes in mobility, pain level/medications needed, energy and muscle tone were assessed and testosterone dosage was adjusted if needed prior to each injection. Follow-up testosterone levels were measured one week after the initial injection and on an as needed basis throughout the course of treatment. […]

Data set [3] is described as follows: Example 2: blood testosterone level during testosterone therapy. The conditions noted are these: for testosterone level: dog Blackjack. As for the experimental part: (§1) A 28.7 pound, 12 year and two month-old neutered male Cocker Spaniel named Blackjack was evaluated because of his owner's concerns about declines in his level of mobility and arthritis.
(§2) During month one of the protocol, Blackjack was screened for treatment by conducting a thorough physical exam, complete blood chemistry, urinalysis, and testosterone level. […] An initial injection of testosterone IM was administered and Blackjack began treatment with Previcoxx 57 mg once per day. A follow-up was conducted by phone one day after the initial injection and again at two weeks post injection.
(§3) Previcoxx was discontinued and Metacam was prescribed. During a follow-up appointment Blackjack received an injection of testosterone IM. […] It was decided to increase the dosage of testosterone.
At this time a regular annual exam was conducted.

The test system of data set [4] is neutered male Cocker Spaniel with declines in mobility and arthritis. Nature of the data set: Example 2: clinical outcome and side effects in a neutered male Cocker Spaniel. As for the experimental part: as §1, §2, §3
Radiographs were taken to rule out degenerative joint disease and neoplasia. During month three, the patient received another injection of testosterone IM. […] Blackjack was then operated on to treat the fracture.
Monthly injections of testosterone continued. The dosage of testosterone had to be lowered after surgery due to concerns about Blackjack being too active after surgery to repair his fracture and was raised again after healing was complete. During month nine, Blackjack underwent further surgery to remove multiple skin growths.
During month ten Blackjack received an injection of testosterone, returning him to the dosage he received prior to his injury and subsequent surgery. […] During month twelve Blackjack continued receiving testosterone injections, and during month thirteen additional skin growths had to be removed.

The conditions of data set [5]: free, non-esterified form; cited from earlier work.
For data set [6] the following is noted: injectable ester; cited from earlier work.

Turning to `CCCCCCCCCCC(=O)O[C@H]1CC[C@H]2[C@@H]3CCC4=CC(=O)CC[C@]4(C)[C@H]3CC[C@]12C` [testosterone undecanoate], the “effectiveness when taken orally” value in data set [1] is listed as “effective when taken orally”. Besides, the “time to elimination from the body” value in data set [1] (orally administered) was 3 to 4 h.

Turning to `C[C@]12CC[C@H]3[C@@H](CCC4=CC(=O)CC[C@@]43C)[C@@H]1CC[C@@H]2O` [testosterone], in data set [2] (25 dogs analysed, n=23 improved, monthly testosterone injections, improvement = more mobility and/or energy, less pain medication, less muscle atrophy), the “subjects that made improvements after the study protocol” value was “ninety-two”. In addition, the side effects entry in data set [2] (evaluated at monthly follow-ups, all dogs) is “no side effects were observed”; in data set [4] (follow-up one day and two weeks after initial IM injection), “No side effects were reported”. Further, the “dogs whose injection dosages had to be lowered due to becoming too active” value in data set [2] (two of 25 dogs) was 8%. Further, the testosterone level in data set [3] (second month, one week after second IM injection, baseline <40 pg/ml) stood at 604.80 pg/mL; in data set [3] (third measurement (month three/four) after increased IM dosage), 1224.50 pg/mL. This molecule displayed a concentration at 4 month in data set [3] (male, Cocker Spaniel, dog, blood, intramuscular) of 1.22 ng/mL. Further, the “healing of distal humeral lateral condylar fracture while being treated” value in data set [4] (after surgery) is reported as “completely healed from this fracture within two months of surgery”. For the same molecule, in data set [4] (month eleven), the “behaviour leading to dosage decrease” value was “mounting other dogs”. In addition, the owner-reported improvements result in data set [4] (owner interview in week 57 of the protocol) is “improvements in Blackjack's ability to jump on furniture, ascend and descend stairs, and rise from sitting and lying positions”. In addition, the “adverse side effects from the treatment” value in data set [4] (whole course of treatment) is recorded as “no adverse side effects”. In data set [1], the “effectiveness when taken orally” value was “not effective”. The “solubility in oil and water” value in data set [5] was “poor solubility in both oil and water”.

As for `CCCCCCC(=O)O[C@H]1CC[C@H]2[C@@H]3CCC4=CC(=O)CC[C@]4(C)[C@H]3CC[C@]12C` [Testosterone enanthate], the release time in data set [6] was 8 to 10 days.

For Testosterone propionate, in data set [6], the release time is 3 to 4 days.

Take `C[C@]12CC[C@H]3[C@@H](CCC4=CC(=O)CC[C@@]43C)[C@@H]1CC[C@@H]2OC(=O)CCC1CCCC1` [Testosterone cypionate]: in data set [6], the release time was 8 to 10 days.

In the case of `C[C@]12CC[C@H]3[C@@H](CCC4=CC(=O)CC[C@@]43C)[C@@H]1CC[C@@H]2OC(=O)CCc1ccccc1` [Testosterone phenylpropionate], in data set [6], the release time was 1-3 weeks.
